Reference: patent publication EP0548798A1, “Antiviral agent” (SANWA KAGAKU KENKYUSHO CO., LTD., priority 1991, dated 1993)
Converted amounts (≈) assume the structure as drawn. Where two headings read alike, the source gives them in different places.

Key:
[1] = test system: herpes simplex virus type 1 (Miyama strain); test: Antiviral activity against HSV-1 in vitro, inhibition of virus-induced CPE in GMK cells (Test Example 1); format: cell-based, HSV-1 (Miyama strain); details: Human alphaherpesvirus 1, GMK cells, 1% fetal bovine serum, read-out: Antiviral Activity (ΔTCID₅₀(log₁₀))
Description: (§1) Confluent GMK cells (derived from green monkey kidney) in 96-well plates were infected with HSV-1 (Miyama strain) in the presence of various concentrations of test compounds. […] The virus titer (TCID₅₀) was determined from CPE of virus infected culture. Antivirus effects of test compounds were calculated from TCID₅₀ values of test compound treated and control cultures and represented by ΔTCID₅₀(log₁₀). Test compounds were dissolved in MEM medium, ethanol or DMSO to 10 mg/ml, and diluted with MEM medium supplemented with 1% fetal bovineserum.

[2] = test system: HIV; test: Inhibition of HIV-induced cytopathogenicity in MT-4 cells; format: cell-based
Description: MT-4 cells (lymphoma derived from human T cell leukemia) in 96-well plate were infected with […] in the presence of various concentrations of test compounds. After incubation, inhibitory effect of HIV-induced CPE by the test compounds and cytotoxicity were microscopically observed. […]
Further, since the compounds of the present invention have a chemical structure different from the conventional antiviral substances, it is useful for the prevention or treatment of the infectious diseases caused by viruses resistant to the conventional antiviral substances.

[3] = test system: GMK cells; test: Cytotoxicity observed microscopically in GMK cells (Test Example 1); format: cell-based, green monkey; details: GMK cells, in parentheses
Description: as §1
In Table 1, parentheses indicate the cytotoxicity of these compounds. (-) and (±) indicate no cytotoxicity and slight cytotoxicity, respectively.

[4] = test system: HSV-1 (Miyama strain); test: Anti HSV-1 activity in vivo, intraperitoneally infected mice; design: species or system Male BALB/c mice; details: 322 PFU (10LD₅₀) HSV-1
Description: Male BALB/c mice (5 weeks of age) were intraperitoneally infected with 322 PFU (plaque forming unit, 10LD₅₀) of HSV-1 (Miyama strain). Twenty one days later, survival ratio and mean survival days were evaluated. Test compounds were dispersed in 5% arabic gum/physiological saline, and intraperitoneally administered at 10 mg and 20 mg/kg. Treatment began just after virus inoculation and continued for 5 days.

[5] = test system: MT-4 cells; test: Minimum cytotoxic concentration in MT-4 cells; format: cell-based, human
Description: MT-4 cells (lymphoma derived from human T cell leukemia) in 96-well plate were infected with […] in the presence of various concentrations of test compounds. After incubation, inhibitory effect of HIV-induced CPE by the test compounds and cytotoxicity were microscopically observed. […] TABLE 6 In Table 6, parentheses indicate the minimum cytotoxic concentration of test compounds.

[6] = test system: herpes simplex virus type 1 (Miyama strain); test: Antiviral activity against HSV-1 in vitro, inhibition of virus-induced CPE in GMK cells (Test Example 2); format: cell-based, HSV-1 (Miyama strain); details: 0.5% fetal bovine serum
Description: (§2) Confluent GMK cells (derived from green monkey kidney) in 96-well plates were infected with HSV-1 (Miyama strain) in the presence of various concentrations of test compounds. After incubation, virus-induced cytopathic effect (CPE), inhibitory effect of CPE by the test compound and cytotoxicity were microscopically observed. The virus titer (TCID₅₀) was determined from CPE of virus infected culture. Ancivirus effects of test compounds were calculated from TCID₅₀ values of test compound treated and control cultures and represented by ΔTCID₅₀(log₁₀). Test compounds were dissolved in MEM medium, ethanol or DMSO to 10 mg/ml, and diluted with MEM medium supplemented with 0.5% fetal bovine serum.

[7] = test system: GMK cells; test: Cytotoxicity observed microscopically in GMK cells (Test Example 2); format: cell-based, green monkey; design: key: -: no cytotoxicity; ±: slight cytotoxicity; +: cytotoxicity with observable antiviral effect; details: in parentheses
Description: as §2
In Table 4, parentheses indicate the cytotoxicity of these compounds. (-), (±) and (+) indicate no cytotoxicity, slight cytotoxicity and cytotoxicity with observable antiviral effect, respectively.

[8] = Human immunodeficiency virus 1, MT-4 cells, minimum inhibitory concentration, read-out: Anti-HIV Activity (MIC, µg/ml)
[9] = 10 mg/kg intraperitoneally for 5 days
[10] = 20 mg/kg intraperitoneally for 5 days
[11] = Human immunodeficiency virus 1, read-out: Anti-HIV Activity (MIC, µg/ml)

SMILES	MIC [2, 11]	log reduction at 10 µg/mL [1]	MIC [2, 8]	cytotoxicity ([3]; 10 µg/ml)	Mean Survival Days [4, 9]	Survival Ratio at 21 days (%) [4, 9]	Mean Survival Days [4, 10]	Survival Ratio at 21 days (%) [4, 10]	minimum cytotoxic concentration ([5]; MT-4 cells, in parentheses)	log reduction at 5 µg/mL ([1]; 5 µg/ml)	cytotoxicity ([3]; 5 µg/ml)	Antiviral Activity (ΔTCID₅₀(log₁₀)) ([6]; 5 µg/ml)	Antiviral Activity (ΔTCID₅₀(log₁₀)) ([6]; 10 µg/ml)	cytotoxicity ([7]; 5 µg/ml)	cytotoxicity ([7]; 10 µg/ml)	minimum cytotoxic concentration [5]
CCCCC/C=C\C/C=C\CCCCCCCC(=O)N1CCN(c2ccccc2Cl)CC1 [Compound of Example 8, 1-(2-Chlorophenyl)-4-[(Z,Z)-9,12-octadecadienoyl]piperazine]		2	16 µg/mL (≈ 34.8 µM)	-	13.7 ± 1.6 days	20%	16.4 ± 2.0 days	40%	> 125 µg/mL							
CCCCCCCC(=O)N1CCN(c2ccccc2Cl)CC1 [Compound of Example 9, 1-(2-Chlorophenyl)-4-octanoylpiperazine]		> 3	> 125 µg/mL	±	14.2 ± 1.5 days	20%	18.7 ± 1.8 days	60%	> 250 µg/mL	0.83	-					
COc1cc2c(=O)n(N3CCN(c4ccccc4C(F)(F)F)CC3)ncc2c(OC)c1OC [Compound of Example 19, 2-[4-(2-Trifluoromethylphenyl)-1-piperazinyl]-5,6,7-trimethoxy-1(2H)-phthalazinone]			31 µg/mL (≈ 66.7 µM)						> 125 µg/mL			1.17 log₁₀	> 3.00 log₁₀	-	+	

Continued, in another order:

MIC [2, 11]	SMILES	log reduction at 10 µg/mL [1]	MIC [2, 8]	cytotoxicity ([3]; 10 µg/ml)	Mean Survival Days [4, 9]	Survival Ratio at 21 days (%) [4, 9]	Mean Survival Days [4, 10]	Survival Ratio at 21 days (%) [4, 10]	minimum cytotoxic concentration ([5]; MT-4 cells, in parentheses)	log reduction at 5 µg/mL ([1]; 5 µg/ml)	cytotoxicity ([3]; 5 µg/ml)	Antiviral Activity (ΔTCID₅₀(log₁₀)) ([6]; 5 µg/ml)	Antiviral Activity (ΔTCID₅₀(log₁₀)) ([6]; 10 µg/ml)	cytotoxicity ([7]; 5 µg/ml)	cytotoxicity ([7]; 10 µg/ml)	minimum cytotoxic concentration [5]
8 µg/mL (≈ 14.8 µM)	CC[C@@]12C=C(C(=O)OCCN3CCN(c4ccccc4OC)CC3)n3c4c(c5ccccc53)CCN(CCC1)[C@H]42 [Compound of Example 27, (3α,16α)-Eburunamenine-14-carboxylic acid 2-[4-(2-methoxyphenyl)piperazine-1-yl]ethyl ester]											1.00 log₁₀	3.00 log₁₀	-	±	63 µg/mL
4 µg/mL (≈ 7.34 µM)	CC[C@@]12C=C(C(=O)OCCN3CCN(c4ccccc4Cl)CC3)n3c4c(c5ccccc53)CCN(CCC1)[C@H]42 [Compound of Example 28, (3α,16α)-Eburunamenine-14-carboxylic acid 2-[4-(2-chlorophenyl)piperazine-1-yl]ethyl ester]											2.00 log₁₀	3.00 log₁₀	-	+	63 µg/mL
